ChEMBL document CHEMBL1152356, “Solving the confusion of gnaphaliin structure: gnaphaliin A and gnaphaliin B identified as active principles of Gnaphalium liebmannii with tracheal smooth muscle relaxant properties” (J Nat Prod, 2009)
pEC50: −log10 of the molar value.

Experiment: Vasorelaxant activity against carbachol chloride-induced contraction in guinea pig trachea treated 30 mins after carbachol chloride challenge
Format: functional, tissue-based, Cavia porcellus

Row | Structure (SMILES) | EC50 | pEC50 (read-out: EC50)
1 | COc1c(-c2ccccc2)oc2c(OC)c(O)cc(O)c2c1=O [GNAPHALIIN] | 43.1 µg/mL | 
2 | COc1cc(O)c2c(=O)c(O)c(-c3ccccc3)oc2c1OC [GNAPHALIIN B] | 63.05 µg/mL | 
3 | Cn1c(=O)c2[nH]cnc2n(C)c1=O [AMINOPHYLLINE] |  | 3.27
